For test [1], the system named is human fibroblasts. As to the kind of experiment: Collagen synthesis / collagen proliferation performance (3H-proline incorporation, RCB). The settings on record: for collagen proliferation, result in words (Table 2, FIG. 4): concentrations 10^−6 to 10^−4. Type of test: cell-based. Here is the method: In order to determine degree of collagen synthesis, human fibroblasts were cultured in a 24-well microtiter plate. The same sample as used for cell proliferation was diluted in a rate of 1/10 in a culture medium and the diluted sample was added to the cultured fibroblasts. The samples used herein were vitamin C, genistein, cyclodextrin, and the inclusion-complexes prepared in Examples 1 and 2.
At 3 days after culture, 0.5 ml of 10% FBS containing DMEM medium was added to each well, followed by adding 10 μCi of L[2,3,4,5-3H]-proline thereto. After 24 hours, the medium and the cells were collected from the well and fed into a 5% trichloroacetic acid (TCA) solution to rinse the product. The rinsed product was plated in two test tubes. 1 unit/μl of Type I collagenase was added to one of the test tubes and cultured at 37° C. for 90 minutes, while the other test tube was stored at 4° C.
After that, adding 0.05 ml of 50% TCA to both the test tubes and leaving the same at 4° C. for 20 minutes, each of the test tubes was subjected to centrifugation at 12,000 rpm for 10 minutes. The resultant supernatant and precipitate were detected using a liquid scintillation counter (LSC) to measure decay per minute (dpm) values. The measured dpm values were used to calculate relative collagen biosynthesis (RCB) values according to the following equation 1: RCB=collagen dpm value/{[([…])×5.4]+collagen dpm value}×100 Equation 1

The test system of test [2] is human fibroblasts. As to the kind of experiment: Fibroblast proliferation performance (MTT). The settings on record: 4 days culture. The test is classed as cell-based. Here is the method:
In order to evaluate cell proliferation performance of the inclusion-complex according to the present invention, fibroblast proliferation performance was determined.
More particularly, human fibroblasts were cultured in Dulbecco s Modified Eagle's medium (DMEM) containing 2.5% fetal bovine serum (FBS) and the cultured cells were plated in a 96-well microtiter plate at 5,000 cells/well.
Each of the inclusion-complex produced in Example 1 (an inclusion-complex of β-cyclodextrin/geniste with a genistein concentration of 5%), the inclusion-complex produced in Example 2 (an inclusion-complex of hydroxypropyl β-cyclodextrin/genistein with a genistein concentration of 5%) was used as a test sample. On the other hand, genistein, retinol and tocopherol, hydroxypropyl β-cyclodextrin and β-cyclodextrin, respectively, were used as controls. Each of the samples was regulated to have a final concentration of 1 mg/ml and added to the fibroblasts, followed by additional culturing of the fibroblasts for 4 days.
After completing the culture, 50 μl of 0.2% MTT (3-[4,5-dimethylthiazol-2-yl]-2,5-diphenyltetrazolium bromide) solution was added to each well, and then, cultured at 37° C. for 4 hours. The obtained formazan was dissolved in dimethyl sulfoxide (DMSO). The formazan solution was subjected to determination of absorption at 570 nm using a microplate reader.

For hydroxypropyl β-cyclodextrin, the figures for the Collagen proliferation rate with human fibroblasts [1] (concentration 10^−4), with human fibroblasts [1] (concentration 10^−5) and in the test with human fibroblasts [1] (concentration 10^−6) were 104%, 104% and 101%, respectively. Further, the “collagen proliferation, result in words (Table 2, FIG. 4)” value (“collagen proliferation, result in words” for short) in the test with human fibroblasts [1] was “not greatly improved”.
With `O=c1c(-c2ccc(O)cc2)coc2cc(O)cc(O)c12` [Genistein], the “cell viability dependent on concentration (FIG. 2)” value (“cell viability dependent” for short) with human fibroblasts [2] is reported as “increased somewhat in proportion to concentration”. Besides, the Collagen proliferation rate in the test with human fibroblasts [1] (concentration 10^−4) is given as 115%; in the test with human fibroblasts [1] (concentration 10^−5), 112%; in the test on human fibroblasts [1] (concentration 10^−6) it was 105%. The “collagen proliferation, result in words” value in the test with human fibroblasts [1] is given as “more excellent effects with increased concentration”.
Consider `OC[C@H]1O[C@@H]2O[C@H]3[C@H](O)[C@@H](O)[C@@H](O[C@H]4[C@H](O)[C@@H](O)[C@@H](O[C@H]5[C@H](O)[C@@H](O)[C@@H](O[C@H]6[C@H](O)[C@@H](O)[C@@H](O[C@H]7[C@H](O)[C@@H](O)[C@@H](O[C@H]8[C@H](O)[C@@H](O)[C@@H](O[C@H]1[C@H](O)[C@H]2O)O[C@@H]8CO)O[C@@H]7CO)O[C@@H]6CO)O[C@@H]5CO)O[C@@H]4CO)O[C@@H]3CO` [Cyclodextrin, β-cyclodextrin], for which the Collagen proliferation rate amounted to 102% in the test on human fibroblasts [1] (concentration 10^−4), 101% in the test on human fibroblasts [1] (concentration 10^−5) and 102% in the test on human fibroblasts [1] (concentration 10^−6). In addition, the “collagen proliferation, result in words” value with human fibroblasts [1] is recorded as “not greatly improved”.
For the molecule `CC1=C(/C=C/C(C)=C/C=C/C(C)=C/CO)C(C)(C)CCC1` [retinol], the “cell viability dependent” value in the test on human fibroblasts [2] is on record as “increased somewhat in proportion to concentration”.
For the molecule tocopherol, the “cell viability dependent” value with human fibroblasts [2] is on record as “increased somewhat in proportion to concentration”.
As for `O=C1O[C@H]([C@@H](O)CO)C(O)=C1O` [Vitamin C], the Collagen proliferation rate with human fibroblasts [1] (concentration 10^−4) is 98%; with human fibroblasts [1] (concentration 10^−5), 105%; with human fibroblasts [1] (concentration 10^−6), 106%. Further, the “collagen proliferation, result in words” value in the test on human fibroblasts [1] was “decreased as its concentration increased”.
